Reference: BigSolDB 2.1

Clc1cc(Cl)cc(Cl)c1
solubility (mole fraction)
Conditions	in acetone	in cyclohexane	in ethyl acetate	in isobutanol	in isopropanol	in n-butanol	in n-propanol	in toluene
273.15 K	0.0419	–	0.0928	0.0246	0.0144	0.036	0.0211	0.169
275.65 K	0.0472	–	0.102	0.028	0.0167	0.0406	0.0238	0.184
278.15 K	0.0524	–	0.113	0.0321	0.0195	0.0467	0.0273	0.199
280.65 K	0.0581	0.131	0.123	0.0367	0.0225	0.0529	0.0313	0.218
283.15 K	0.0644	0.147	0.137	0.042	0.0256	0.0592	0.0359	0.24
285.65 K	0.0718	0.165	0.151	0.0478	0.0297	0.0679	0.0406	0.26
288.15 K	0.079	0.186	0.164	0.0545	0.0339	0.0767	0.0466	0.287
290.65 K	0.0876	0.207	0.179	0.0616	0.0384	0.0852	0.0532	0.311
293.15 K	0.0963	0.231	0.195	0.0708	0.0441	0.0969	0.0598	0.337
295.65 K	0.106	0.255	0.213	0.0804	0.0509	0.107	0.0677	0.368
298.15 K	0.116	0.286	0.234	0.091	0.058	0.122	0.0764	0.399
300.65 K	0.129	0.318	0.253	0.102	0.0649	0.136	0.0853	0.427
303.15 K	0.14	0.35	0.274	0.117	0.074	0.15	0.0973	0.463
305.65 K	0.154	0.391	0.298	0.131	0.0849	0.166	0.109	0.5
308.15 K	0.171	0.434	0.325	0.147	0.0969	0.185	0.122	0.539
310.65 K	0.192	0.481	0.352	0.166	0.11	0.207	0.138	0.575
313.15 K	0.213	0.528	0.38	0.191	0.127	0.233	0.158	0.619
